Experimental data published in the supplement of paper PMC10307832.

Key:
Assay in all cases: relative viability (nuclei count vs DMSO), 5 days (fraction); higher = more cells survive
[1] = tested on: 201T
Summary of the method: (§1)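 For relative viability, nuclei counts in treated wells were divided by those in vehicle wells. Lung cancer cell lines had been pin-tool dosed in 1536-well plates the day after seeding and cultured for 5 days, then fixed and stained in one step (final 0.05% Triton X-100, 1% formaldehyde, 1 ug/ml Hoechst) and imaged at 4×. Doses were one drug alone or a fixed anchor-drug dose plus five library-drug doses (not always all listed) in √10 steps, and values are duplicate-plate medians.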

[2] = tested on: COR-L23
Summary of the method: as §1

[3] = tested on: EPLC-272H
Summary of the method: as §1

[4] = tested on: H3255
Summary of the method: as §1

[5] = tested on: HCC-44
Summary of the method: as §1

[6] = tested on: LOU-NH91
Summary of the method: as §1

[7] = tested on: NCI-H1650
Summary of the method: as §1

[8] = tested on: NCI-H1734
Summary of the method: as §1

[9] = tested on: NCI-H1793
Summary of the method: as §1

[10] = tested on: NCI-H1993
Summary of the method: as §1

[11] = tested on: NCI-H2023
Summary of the method: as §1

[12] = tested on: NCI-H2085
Summary of the method: as §1

[13] = tested on: NCI-H2170
Summary of the method: as §1

[14] = tested on: NCI-H2347
Summary of the method: as §1

[15] = tested on: NCI-H2405
Summary of the method: as §1

[16] = tested on: NCI-H3122
Summary of the method: as §1

[17] = tested on: NCI-H441
Summary of the method: as §1

[18] = tested on: NCI-H520
Summary of the method: as §1

[19] = tested on: NCI-H647
Summary of the method: as §1

[20] = tested on: PC-14
Summary of the method: as §1

[21] = tested on: RERF-LC-KJ
Summary of the method: as §1

[22] = tested on: SW 900
Summary of the method: as §1

## NC(=O)Nc1cc(-c2cccc(F)c2)sc1C(=O)N[C@H]1CCCNC1 [AZD7762] + O=C(CCCCCCC(=O)Nc1ccccc1)NO [Vorinostat] (partner 1 µM)
[1]; first compound 0.01 µM
  relative viability: 0.996
[1]; first compound 0.03162 µM
  relative viability: 1.03
[1]; first compound 0.1 µM
  relative viability: 1.03
[1]; first compound 0.3162 µM
  relative viability: 1.08
[1]; first compound 1 µM
  relative viability: 1.01
[2]; first compound 0.01 µM
  relative viability: 0.562
[2]; first compound 0.03162 µM
  relative viability: 0.423
[2]; first compound 0.1 µM
  relative viability: 0.246
[2]; first compound 0.3162 µM
  relative viability: 0.129
[2]; first compound 1 µM
  relative viability: 0.0864
[3]; first compound 0.01 µM
  relative viability: 0.705
[3]; first compound 0.03162 µM
  relative viability: 0.543
[3]; first compound 0.1 µM
  relative viability: 0.383
[3]; first compound 0.3162 µM
  relative viability: 0.107
[3]; first compound 1 µM
  relative viability: 0.0642
[4]; first compound 0.01 µM
  relative viability: 0.944
[4]; first compound 0.03162 µM
  relative viability: 0.831
[4]; first compound 0.1 µM
  relative viability: 0.809
[4]; first compound 0.3162 µM
  relative viability: 0.722
[4]; first compound 1 µM
  relative viability: 0.684
[5]; first compound 0.01 µM
  relative viability: 1.08
[5]; first compound 0.03162 µM
  relative viability: 1.11
[5]; first compound 0.1 µM
  relative viability: 1.1
[5]; first compound 0.3162 µM
  relative viability: 1.1
[5]; first compound 1 µM
  relative viability: 1.02
[6]; first compound 0.01 µM
  relative viability: 0.87
[6]; first compound 0.03162 µM
  relative viability: 0.971
[6]; first compound 0.1 µM
  relative viability: 0.917
[6]; first compound 0.3162 µM
  relative viability: 0.741
[6]; first compound 1 µM
  relative viability: 0.646
[7]; first compound 0.01 µM
  relative viability: 0.622
[7]; first compound 0.03162 µM
  relative viability: 0.719
[7]; first compound 0.1 µM
  relative viability: 0.651
[7]; first compound 0.3162 µM
  relative viability: 0.392
[7]; first compound 1 µM
  relative viability: 0.157
[8]; first compound 0.01 µM
  relative viability: 0.772
[8]; first compound 0.03162 µM
  relative viability: 0.723
[8]; first compound 0.1 µM
  relative viability: 0.738
[8]; first compound 0.3162 µM
  relative viability: 0.415
[8]; first compound 1 µM
  relative viability: 0.251
[9]; first compound 0.01 µM
  relative viability: 0.692
[9]; first compound 0.03162 µM
  relative viability: 0.878
[9]; first compound 0.1 µM
  relative viability: 0.981
[9]; first compound 0.3162 µM
  relative viability: 0.953
[9]; first compound 1 µM
  relative viability: 0.284
[10]; first compound 0.01 µM
  relative viability: 0.764
[10]; first compound 0.03162 µM
  relative viability: 0.729
[10]; first compound 0.1 µM
  relative viability: 0.725
[10]; first compound 0.3162 µM
  relative viability: 0.813
[10]; first compound 1 µM
  relative viability: 0.391
[11]; first compound 0.01 µM
  relative viability: 0.548
[11]; first compound 0.03162 µM
  relative viability: 0.415
[11]; first compound 0.1 µM
  relative viability: 0.257
[11]; first compound 0.3162 µM
  relative viability: 0.184
[11]; first compound 1 µM
  relative viability: 0.0942
[12]; first compound 0.01 µM
  relative viability: 0.788
[12]; first compound 0.03162 µM
  relative viability: 0.784
[12]; first compound 0.1 µM
  relative viability: 0.862
[12]; first compound 0.3162 µM
  relative viability: 0.803
[12]; first compound 1 µM
  relative viability: 0.628
[13]; first compound 0.01 µM
  relative viability: 0.81
[13]; first compound 0.03162 µM
  relative viability: 0.834
[13]; first compound 0.1 µM
  relative viability: 0.766
[13]; first compound 0.3162 µM
  relative viability: 0.772
[13]; first compound 1 µM
  relative viability: 0.824
[14]; first compound 0.01 µM
  relative viability: 0.554
[14]; first compound 0.03162 µM
  relative viability: 0.711
[14]; first compound 0.1 µM
  relative viability: 0.557
[14]; first compound 0.3162 µM
  relative viability: 0.637
[14]; first compound 1 µM
  relative viability: 0.547
[15]; first compound 0.01 µM
  relative viability: 1.08
[15]; first compound 0.03162 µM
  relative viability: 1.08
[15]; first compound 0.1 µM
  relative viability: 0.976
[15]; first compound 0.3162 µM
  relative viability: 0.756
[15]; first compound 1 µM
  relative viability: 0.521
[16]; first compound 0.01 µM
  relative viability: 0.936
[16]; first compound 0.03162 µM
  relative viability: 0.927
[16]; first compound 0.1 µM
  relative viability: 1.06
[16]; first compound 0.3162 µM
  relative viability: 0.925
[16]; first compound 1 µM
  relative viability: 0.973
[17]; first compound 0.01 µM
  relative viability: 1.09
[17]; first compound 0.03162 µM
  relative viability: 0.804
[17]; first compound 0.1 µM
  relative viability: 1.01
[17]; first compound 0.3162 µM
  relative viability: 0.864
[17]; first compound 1 µM
  relative viability: 0.312
[18]; first compound 0.01 µM
  relative viability: 0.78
[18]; first compound 0.03162 µM
  relative viability: 0.825
[18]; first compound 0.1 µM
  relative viability: 0.635
[18]; first compound 0.3162 µM
  relative viability: 0.375
[18]; first compound 1 µM
  relative viability: 0.187
[19]; first compound 0.01 µM
  relative viability: 0.637
[19]; first compound 0.03162 µM
  relative viability: 0.554
[19]; first compound 0.1 µM
  relative viability: 0.521
[19]; first compound 0.3162 µM
  relative viability: 0.281
[19]; first compound 1 µM
  relative viability: 0.108
[20]; first compound 0.01 µM
  relative viability: 0.761
[20]; first compound 0.03162 µM
  relative viability: 0.591
[20]; first compound 0.1 µM
  relative viability: 0.57
[20]; first compound 0.3162 µM
  relative viability: 0.292
[20]; first compound 1 µM
  relative viability: 0.0419
[21]; first compound 0.01 µM
  relative viability: 0.749
[21]; first compound 0.03162 µM
  relative viability: 0.695
[21]; first compound 0.1 µM
  relative viability: 0.711
[21]; first compound 0.3162 µM
  relative viability: 0.722
[21]; first compound 1 µM
  relative viability: 0.601
[22]; first compound 0.01 µM
  relative viability: 0.643
[22]; first compound 0.03162 µM
  relative viability: 0.445
[22]; first compound 0.1 µM
  relative viability: 0.545
[22]; first compound 0.3162 µM
  relative viability: 0.262
[22]; first compound 1 µM
  relative viability: 0.275
